The values below come from publication PMC4459640 (European journal of pharmaceutical sciences : official …, 2014).

Data set [1] concerns opioid receptors. The note with it: ref Brown et al., 1985, Frölich et al., 2011, Zuckerman et al., 1999; cited from earlier work.
Data set [2] concerns opioid receptors. The note with it: ref Brown et al., 1985, Frölich et al., 2011, Zuckerman et al., 1999; cited from earlier work. This is another data set of the same source.
The conditions of data set [3]: ref Brown et al., 1985, Frölich et al., 2011, Zuckerman et al., 1999; cited from earlier work.
In data set [4] the test system is HepG2 human hepatoma cells.
The next data set concerns UGT2B7. The settings on record: cited from earlier work.
The next data set concerns the target human SULT1A1 (Homo sapiens, UniProt P50225). The note with it: pH 7.5.
In the next data set the target is human SULT1A2 (Homo sapiens, UniProt P50226). The settings on record: pH 7.5.
The conditions of data set [5]: morphine metabolites in human; ref Frölich et al., 2011, Skarke and Lötsch, 2002; cited from earlier work.
For data set [6] the following is noted: human, rabbit, and rat; ref Frölich et al., 2011, Smith et al., 1973, Skarke and Lötsch, 2002; cited from earlier work.
Substrate in the data set “not read”: Oc1ccc2c(c1)[C@@]13CCCC[C@@]1(O)[C@@H](C2)N(CC1CCC1)CC3
The data set is described as follows: not read. The settings on record: other: Michaelis-Menten, pH 7.5.

Substrate in data set [7]: CN1CC[C@]23CCCC[C@H]2[C@H]1Cc1ccc(O)cc13
It counts as in vitro ADME, human. The settings on record: other: Michaelis-Menten, pH 7.5.

Chain of human SULT1A1 (P50225 whole entry): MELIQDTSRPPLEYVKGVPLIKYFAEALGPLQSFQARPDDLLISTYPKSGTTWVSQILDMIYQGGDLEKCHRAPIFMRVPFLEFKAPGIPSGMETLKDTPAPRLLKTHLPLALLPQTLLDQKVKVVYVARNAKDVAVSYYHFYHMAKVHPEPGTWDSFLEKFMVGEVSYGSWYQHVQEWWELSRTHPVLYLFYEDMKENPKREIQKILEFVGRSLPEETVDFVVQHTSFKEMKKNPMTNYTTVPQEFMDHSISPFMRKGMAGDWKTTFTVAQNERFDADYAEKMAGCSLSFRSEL
Chain of human SULT1A2 (P50226 whole entry): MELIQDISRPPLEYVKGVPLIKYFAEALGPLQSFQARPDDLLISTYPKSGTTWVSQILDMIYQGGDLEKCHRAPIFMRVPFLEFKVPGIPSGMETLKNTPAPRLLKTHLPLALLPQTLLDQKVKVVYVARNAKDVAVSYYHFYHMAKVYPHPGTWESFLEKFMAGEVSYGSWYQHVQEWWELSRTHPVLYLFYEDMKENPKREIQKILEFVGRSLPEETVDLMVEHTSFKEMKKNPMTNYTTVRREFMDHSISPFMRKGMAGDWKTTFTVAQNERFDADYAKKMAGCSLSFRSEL

Take `CN1CC[C@]23c4c5ccc(O)c4O[C@H]2[C@@H](OS(=O)(=O)O)C=C[C@H]3[C@H]1C5` [morphine-6-sulfate]: in the data set on opioid receptors [1], the “Capability to activate the opioid receptors (ligand activity)” value is “comparable to those of morphine”. Further, the “Affinity toward opioid receptors” value in the data set on opioid receptors [2] is given as “comparable to those of morphine”. In addition, in data set [3], the “Analgesic effect compared with morphine” value is reported as “greater analgesic effect than does morphine”.

By Km is commonly meant the substrate concentration at which the rate is half of its maximum. In the case of `CN1CC[C@]23c4c5ccc(O)c4O[C@H]2C(=O)CC[C@@]3(O)[C@H]1C5` [Oxymorphone, oxymorphone], the “Efficiency of sulfation by HepG2 cells relative to the other three opioid drugs” value in [4] is on record as “more efficiently”. For the same molecule, the Km in the data set on UGT2B7 was 540 to 1360 µM.

In the case of `Oc1ccc2c3c1O[C@H]1[C@H](O)CC[C@@]4(O)[C@@H](C2)N(CC2CC2)CC[C@]314` [6βNaltrexol, 6β-naltrexol], on human SULT1A1, the “Specific activity, SULT1A1” value came out at 0.21 ± 0.03 nmol/min/mg. The “Specific activity, SULT1A2” value on human SULT1A2 came to 0.08 ± 0.01 nmol/min/mg.

As to `C=CCN1CC[C@]23c4c5ccc(O)c4O[C@H]2[C@@H](O)C=C[C@H]3[C@H]1C5` [Nalorphine, nalorphine], the “Efficiency of sulfation by HepG2 cells relative to the other three opioid drugs” value in [4] is recorded as “more efficiently”.

With `Oc1ccc2c(c1)[C@@]13CCCC[C@@]1(O)[C@@H](C2)N(CC1CCC1)CC3` [Butorphanol, butorphanol], the “Efficiency of sulfation by HepG2 cells relative to the other three opioid drugs” value in [4] was “more efficiently”.

On to `CN1CC[C@]23c4c5ccc(O)c4O[C@H]2[C@@H](O[C@@H]2O[C@H](C(=O)O)[C@@H](O)[C@H](O)[C@H]2O)C=C[C@H]3[C@H]1C5` [morphine-glucuronide], for which the Share of metabolite in [5] is recorded as 60–70 % of metabolite.

Take `CN1CC[C@]23c4c5ccc(OS(=O)(=O)O)c4O[C@H]2[C@@H](O)C=C[C@H]3[C@H]1C5` [morphine-3-sulfate, morphine-3-O-sulfate]: the “Capability to activate the opioid receptors (ligand activity)” value in the data set on opioid receptors [1] is “low capability to activate the receptors”. For the same molecule, the “Sulfate metabolite as share of the metabolites from urine” value in data set [6] is recorded as ~ 2%. The “Affinity toward opioid receptors” value in the data set with opioid receptors [2] is listed as “low affinity”.

B1: human SULT2A1 (Homo sapiens) (protein)
chain: MSDDFLWFEGIAFPTMGFRSETLRKVRDEFVIRDEDVIILTYPKSGTNWLAEILCLMHSKGDAKWIQSVPIWERSPWVESEIGYTALSETESPRLFSSHLPIQLFPKSFFSSKAKVIYLMRNPRDVLVSGYFFWKNMKFIKKPKSWEEYFEWFCQGTVLYGSWFDHIHGWMPMREEKNFLLLSYEELKQDTGRTIEKICQFLGKTLEPEELNLILKNSSFQSMKENKMSNYSLLSVDYVVDKAQLLRKGVSGDWKNHFTVAQAEDFDKLFQEKMADLPRELFPWE
The term Vmax denotes the rate approached at saturating substrate. On to B1, for which, in the data set “not read”, the Km came out at 38.95 ± 1.21 µM and the Vmax was 0.00104 µmol/min/mg. In addition, in data set [7], the Km is 599.0 ± 60.7 µM and the Vmax turned out to be 0.00032 µmol/min/mg.
